These results are taken from article PMC5697638, “Identification of a Potent Phosphoinositide 3‐Kinase Pan Inhibitor Displaying a Strategic Carboxylic Acid Group and Development of Its Prodrugs” (Chemmedchem, 2017).

In one series the target is T1, PI3Kδ (Homo sapiens, UniProt O00329).
T1 construct: purchased ProQinase, Germany 1162–1165‐1
Briefly: Lineweaver–Burk plot, inhibition mode against PI3Kδ. The format is biochemical. The following applies: ATP 5-100 μM; 37 at 5, 10, 20 nM. How it is done: Figure 6 Inhibition mode of 37 against PI3Kδ isoform. Lineweaver–Burk plot, 1/v versus 1/[ATP]. The inhibition assay was performed by using varying concentrations of ATP (5, 10, 25, 50, and 100 μM) and fixed concentrations of PI3Kδ recombinant protein (2.4 μg mL^−1) and lipids (1 mg mL^−1 PI/PS lipid micelles mixture) in the presence or absence of different concentrations of 37 (5, 10, and 20 nM).
Lineweaver–Burk plot: The linear phase of the kinetic reaction was defined with 2.4 μg mL^−1 of PI3Kδ in a 20 min reaction time. In the presence of increasing concentrations of 37 (5, 10 and 20 nM), the PI3K lipid kinase activity (for the assay method see “In vitro selection, lipid kinase assay” in the Experimental Section) was assayed at various concentrations of ATP (5, 10, 25, 50, and 100 μM) and in the presence of 0.5 mg mL^−1 lipid micelles (1:1 phosphatidylinositol/phosphatidylserine). A Lineweaver–Burk plot was obtained by plotting 1/v, for which v represents pmol min^−1 of ADP produced in the reaction measured with the ADP‐Glo Kinase Assay kit from Promega (#V9102) versus 1/[ATP] (the inverse of the ATP concentration). The minus‐enzyme control was obtained by incubating phosphatidylinositol in the absence of PI3Kδ.

Series [1] is described as follows: metabolic stability in rat liver microsomes (RLM). The format is in vitro ADME. The procedure:
Twelve esters were prepared (see the Experimental Section for their synthesis and the Supporting Information for chromatographic methods) and evaluated in terms of metabolic stability. For this task, a combined approach based on microsomal and plasmatic stability assays was exploited considering the relevance of the plasmatic and hepatic tissues in esterase activity. Microsomal stability of the selected esters was evaluated by monitoring the disappearance of the substrate incubated in rat liver microsomes (RLM) at 50 μM concentration, in the presence of NADPH. In Table 4, the percentage of the remaining substrate, after incubation (t=60 min), with respect to the initial amount is reported. Overall, the compounds underwent a relevant metabolic transformation, and the substrate depletion ranged from 0 (for 76) to 100 % (for 70). This is mainly due to hydrolysis of the ester function, whereas the metabolites arising from the oxidation catalyzed by the NADPH‐dependent monooxygenase system were negligible from a quantitative point of view. Indeed, the main metabolite formed during the incubation of the esters was corresponding carboxyl derivative 37. […] Moreover, whereas CH2‐pyridin‐4‐yl ester 70 was completely metabolized, corresponding benzyl derivative 65 and piperonyl derivative 72 were more hydrolytically stable, and their residual substrates were 53 and 83 %, respectively. The hydrolytic stability of the selected esters was also evaluated by monitoring the depletion of the substrate incubated at a 50 μM concentration in mouse plasma over a period of 30 min. As expected, the plasmatic metabolic fate of the esters was characterized by the formation of 37 as the only metabolite (see Figure S4). The rate constant k [min^−1], derived for the substrate peak area versus time curve (single‐exponential decay equation—GraphPad Prism software, Inc., San Diego, CA (USA); see Figure S5) was used to calculate the in vitro half‐life t 1/2 [min], and the values are reported in Table 4.
Metabolic stability of PI3K inhibitors in RLM fraction
The standard incubation mixture (500 µL final volume), in 1.5 mL Eppendorf tubes, was carried out in a 50 mM TRIS-HCl buffer (pH 7.4) containing 3.3 mM MgCl2, 1.3 mM NADPNa2, 3.3 mM glucose 6-phosphate, 0.4 Units/mL glucose 6-phosphate dehydrogenase (NADPH regenerating system), acetonitrile as cosolvent (1% of final volume) and 50 µM of substrate. After pre-equilibration of the mixture, an appropriate volume of rat microsomal suspension was added to give a final protein concentration of 1 mg/mL. The mixture was shaken for 1 hour at 37°C and the reaction was quenched by diluting the samples with 500 µL of ice-cold acetonitrile. The samples were then centrifuged at 13,000 rpm for 10 min, and the supernatant was directly injected onto the HPLC column for analysis. Control incubations were performed without microsomes. […]
A Shimadzu HPLC system (Shimadzu, Kyoto, Japan), consisting of two LC-10AD Vp module pumps, an SLC-10A Vp system controller, an SIL-10AD Vp autosampler, and a DGU-14-A on-line degasser was used for the analysis. All the chromatographic separations were performed on a Phenomenex Luna C18 5µm (150 x 4.6 mm i.d.) (Phenomenex srl, Castel Bolognese, Italy) as a stationary phase protected by a Luna C18 SecurityGuard (Phenomenex srl). The SPD-M10Avp photodiode array detector was used to detect the analyte at 254 nm. LC Solution 1.24 software was used to process the chromatograms. Aliquots (20 µL) of supernatants obtained from incubations were injected onto the HPLC system and eluted with a mobile phase (flow rate: 1 mL/min) consisting of solvent A- 0.5% aqueous formic acid solution and solvent B- acetonitrile/methanol 80:20.
The eluants were filtered through a 0.45-µm pore size polyvinylidene difluoride membrane […]
The following gradients programs were used: […]
In general terms: Microsomes from liver hold many membrane-bound enzymes, among them those of drug oxidation.

The next series concerns PC3 cells. Description: PC3 cell proliferation (MTT). The format is cell-based. More on the design: key to Cell proliferation: active: Active: able to reduce proliferation to an extent greater than 50 %; inactive: able to reduce proliferation to an extent less than 50 %. The procedure:
The biological activity of each prodrug was tested by analyzing their ability to decrease PC3 proliferation as a rapid test to evaluate the PI3Ks inhibitory activity after hydrolysis in a cell‐based assay. […] The choice of using such a cut‐off was due to the intent to identify rapidly which prodrug could be hydrolyzed in the assay to release the active compound. As expected, a good correlation between rate of hydrolysis and cellular activity was observed, and esters 64–68 and 70–73 were determined to be good candidates for topical use. We decided to focus our attention on ester 64, as its half‐life was a good compromise for a prodrug. The EC50 value of this ester was then evaluated on PC3 cells, and a value of (2.3±0.8) μM was obtained.
Cell proliferation: PC3 cell proliferation was measured with a 3‐(4,5‐dimethyl thiazol‐2‐yl)‐2,5‐diphenyltetrazolium bromide (MTT)‐based colorimetric assay (#11 465 007 001 Roche Diagnostic GmbH, Germany). PC3 cells were seeded in a 96‐well plate at a concentration of 10^4 cells mL^−1. PC3 cells were treated for 72 h with increasing concentrations of 64, and MTT was added. After ON solubilization of the MTT metabolite, formazan, the absorbance (λ=550–600 nm absorbance, with a reference wavelength of 650 nm) of each well was read in a multi‐well reader (Glomax multi detection system, Promega, model number 9301‐010). The percentage of proliferating cells was calculated by relating each absolute value to the control intended as PC3 cells treated with DMSO alone. An IC50 value was then derived by plotting all data on a dose–response curve (Graph Pad software) by using nonlinear regression fit (equation [log agonist] versus response).

T1 sequence (O00329 whole entry): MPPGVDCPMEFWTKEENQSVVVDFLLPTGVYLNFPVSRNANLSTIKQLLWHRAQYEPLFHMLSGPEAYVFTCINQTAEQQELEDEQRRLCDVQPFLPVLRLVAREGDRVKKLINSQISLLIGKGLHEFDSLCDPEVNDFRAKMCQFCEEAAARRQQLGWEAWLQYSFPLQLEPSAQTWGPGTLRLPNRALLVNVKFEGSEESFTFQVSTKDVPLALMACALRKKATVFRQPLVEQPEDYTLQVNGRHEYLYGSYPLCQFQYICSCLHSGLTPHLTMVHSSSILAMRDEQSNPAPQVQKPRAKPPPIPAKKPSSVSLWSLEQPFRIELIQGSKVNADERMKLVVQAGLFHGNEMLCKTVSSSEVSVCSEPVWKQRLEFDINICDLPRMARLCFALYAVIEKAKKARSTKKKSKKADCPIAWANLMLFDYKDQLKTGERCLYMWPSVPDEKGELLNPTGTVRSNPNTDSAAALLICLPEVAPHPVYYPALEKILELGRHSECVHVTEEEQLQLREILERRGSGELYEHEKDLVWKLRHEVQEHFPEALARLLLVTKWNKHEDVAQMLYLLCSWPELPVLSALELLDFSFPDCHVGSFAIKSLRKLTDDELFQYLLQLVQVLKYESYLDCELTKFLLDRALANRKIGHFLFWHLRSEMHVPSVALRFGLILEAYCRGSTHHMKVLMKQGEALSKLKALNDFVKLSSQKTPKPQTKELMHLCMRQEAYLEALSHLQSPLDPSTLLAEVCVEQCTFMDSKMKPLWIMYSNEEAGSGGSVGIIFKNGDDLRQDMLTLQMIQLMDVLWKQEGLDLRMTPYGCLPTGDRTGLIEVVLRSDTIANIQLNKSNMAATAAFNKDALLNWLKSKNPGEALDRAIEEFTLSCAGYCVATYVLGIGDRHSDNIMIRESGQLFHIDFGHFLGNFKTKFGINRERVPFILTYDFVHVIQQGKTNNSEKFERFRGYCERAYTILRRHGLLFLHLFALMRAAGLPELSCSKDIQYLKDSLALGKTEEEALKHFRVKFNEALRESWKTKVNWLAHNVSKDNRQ
T1 sequence (P27986 whole entry partner): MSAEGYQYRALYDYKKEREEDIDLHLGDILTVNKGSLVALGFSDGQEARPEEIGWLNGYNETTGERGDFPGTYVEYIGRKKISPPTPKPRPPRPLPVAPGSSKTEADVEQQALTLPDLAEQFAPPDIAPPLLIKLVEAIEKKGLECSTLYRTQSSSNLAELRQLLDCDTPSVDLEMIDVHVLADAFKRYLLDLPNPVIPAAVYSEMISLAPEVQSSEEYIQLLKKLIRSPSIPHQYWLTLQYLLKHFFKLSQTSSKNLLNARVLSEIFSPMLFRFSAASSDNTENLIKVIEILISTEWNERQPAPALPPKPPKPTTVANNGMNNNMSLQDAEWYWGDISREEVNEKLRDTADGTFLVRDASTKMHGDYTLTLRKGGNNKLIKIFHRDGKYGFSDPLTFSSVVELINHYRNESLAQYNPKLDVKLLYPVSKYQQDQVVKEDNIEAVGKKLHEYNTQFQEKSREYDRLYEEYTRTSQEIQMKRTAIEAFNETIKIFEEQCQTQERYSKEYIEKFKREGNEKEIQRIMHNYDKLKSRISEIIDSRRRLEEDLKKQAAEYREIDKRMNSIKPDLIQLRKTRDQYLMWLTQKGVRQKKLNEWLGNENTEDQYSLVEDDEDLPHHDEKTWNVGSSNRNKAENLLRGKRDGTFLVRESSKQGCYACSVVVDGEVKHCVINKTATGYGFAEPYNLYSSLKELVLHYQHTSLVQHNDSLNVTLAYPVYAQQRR

For `O=C(O)c1cccc(Cn2cc(-c3cccc4c(=O)cc(N5CCOCC5)[nH]c34)nn2)c1` [Compound 37, 3‐{[4‐(2‐Morpholino‐4‐oxo‐1,4‐dihydroquinolin‐8‐yl)‐1H‐1,2,3‐triazol‐1‐yl]methyl}benzoic acid], at PI3Kδ, the “inhibition mode against PI3Kδ” value is “ATP‐competitive inhibitor”.

`COC(=O)c1cccc(Cn2cc(-c3cccc4c(=O)cc(N5CCOCC5)[nH]c34)nn2)c1` [Compound 64, Methyl 3‐{[4‐(2‐morpholino‐4‐oxo‐1,4‐dihydroquinolin‐8‐yl)‐1H‐1,2,3‐triazol‐1‐yl]methyl}benzoate]: the “Residual microsomal substrate (t=60 min)” value in series [1] (RLM, 50 μM substrate, with NADPH, LC–UV) was found to be 20%. In series [1] (control incubation without microsomes, 50 μM, 60 min), the “% residual substrate, NADPH (without RLM)” value amounted to 100%. For the same molecule, in the series on PC3 cells (72 h of treatment), the “effect on proliferation of PC3 cells” value is reported as “dose‐dependently decreased proliferation”. For the same molecule, the EC50 in the series with PC3 cells (Homo sapiens, PC-3, PC3 proliferation, MTT, 72 h) was determined as 2300 ± 800 nM. For the same molecule, in the series with PC3 cells (PC3 cells, 10 μM of each prodrug), the Cell proliferation entry is recorded as “active”.

In general, EC50 refers to the concentration that produces a half-maximal response.
